From US20040009973A1, “Novel potassium channels modulators” (4SC AG, priority 2002, published 2004)
Each block holds one compound with its values, some of them ahead of it.

How the values were obtained:
[1] = target: T1, BK potassium channel, cloned hSlo (α-hSlo and β-bSlo) in CHO cells (Homo sapiens, UniProt Q12791); test: Em-Assay: membrane potential with voltage sensitive dye DiBAC(4)3, fluorescence plate reader; type: cell-based; conditions: compound 50 μM; NS004 25 or 50 μM; hSlo transfected CHO cells; change in DiBAC(4)3 fluorescence intensity
T1 construct: expressed in transfected cells; host or cells: CHO cells, permanently transfected
T1 sequence (Q12791 1-1178 isoform Q12791-5): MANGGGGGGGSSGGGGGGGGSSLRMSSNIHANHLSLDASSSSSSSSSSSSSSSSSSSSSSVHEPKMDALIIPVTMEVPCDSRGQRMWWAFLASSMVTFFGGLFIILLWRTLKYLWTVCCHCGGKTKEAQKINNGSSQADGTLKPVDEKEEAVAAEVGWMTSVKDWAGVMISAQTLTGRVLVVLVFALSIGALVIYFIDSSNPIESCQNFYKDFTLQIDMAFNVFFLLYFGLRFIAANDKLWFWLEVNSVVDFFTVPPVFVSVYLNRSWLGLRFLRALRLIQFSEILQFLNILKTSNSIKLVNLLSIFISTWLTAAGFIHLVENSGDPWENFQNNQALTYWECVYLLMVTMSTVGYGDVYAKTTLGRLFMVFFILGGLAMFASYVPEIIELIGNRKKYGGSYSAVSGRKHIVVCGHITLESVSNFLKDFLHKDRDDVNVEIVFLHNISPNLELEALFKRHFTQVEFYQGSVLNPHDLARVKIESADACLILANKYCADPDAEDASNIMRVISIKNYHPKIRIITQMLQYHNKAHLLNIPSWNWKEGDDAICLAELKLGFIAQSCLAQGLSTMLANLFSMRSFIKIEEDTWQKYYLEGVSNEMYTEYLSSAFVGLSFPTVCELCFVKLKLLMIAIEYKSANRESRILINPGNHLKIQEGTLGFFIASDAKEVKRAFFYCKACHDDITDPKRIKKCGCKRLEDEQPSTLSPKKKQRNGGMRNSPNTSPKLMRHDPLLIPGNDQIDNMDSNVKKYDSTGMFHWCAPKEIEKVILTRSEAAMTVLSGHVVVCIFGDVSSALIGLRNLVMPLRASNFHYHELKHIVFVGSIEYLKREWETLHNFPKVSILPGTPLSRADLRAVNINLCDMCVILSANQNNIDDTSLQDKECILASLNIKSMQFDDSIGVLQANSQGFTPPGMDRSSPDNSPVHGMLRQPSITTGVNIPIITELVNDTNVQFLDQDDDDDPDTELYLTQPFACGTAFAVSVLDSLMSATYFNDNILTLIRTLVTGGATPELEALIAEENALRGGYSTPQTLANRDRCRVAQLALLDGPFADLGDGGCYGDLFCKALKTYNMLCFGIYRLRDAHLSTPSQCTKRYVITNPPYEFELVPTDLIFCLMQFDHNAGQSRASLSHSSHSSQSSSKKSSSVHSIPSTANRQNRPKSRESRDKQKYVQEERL
T1 sequence (Q28067 2-191 partner limits assumed): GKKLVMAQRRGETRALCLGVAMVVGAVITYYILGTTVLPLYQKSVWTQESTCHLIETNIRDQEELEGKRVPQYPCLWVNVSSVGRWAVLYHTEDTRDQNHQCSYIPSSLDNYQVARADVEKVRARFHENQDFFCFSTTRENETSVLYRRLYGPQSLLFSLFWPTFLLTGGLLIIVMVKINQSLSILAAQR
Procedure, shortened: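 CHO cells stably expressing α-hSlo and β-bSlo were loaded 30-60 min at 37° C with 2 μM DiBAC(4)3 in PBS/20 mM HEPES pH 7.4. Fluorescence (485/520 nm) was read every 60 s: 7 min baseline, then 15 min after compound. Background-subtracted, normalized change was expressed as a ratio to reference NS004.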

[2] = target: BK currents, cloned α-hSlo and β-bSlo in CHO cells (Homo sapiens, UniProt Q12791); test: Electrophysiological studies: whole-cell patch-clamp of BK currents; type: cell-based; conditions: compound 20 μM, steady-state BK current, free internal Ca2+ 1×10^−6M
Sequence of BK currents, cloned α-hSlo and β-bSlo in CHO cells (Q12791 whole entry): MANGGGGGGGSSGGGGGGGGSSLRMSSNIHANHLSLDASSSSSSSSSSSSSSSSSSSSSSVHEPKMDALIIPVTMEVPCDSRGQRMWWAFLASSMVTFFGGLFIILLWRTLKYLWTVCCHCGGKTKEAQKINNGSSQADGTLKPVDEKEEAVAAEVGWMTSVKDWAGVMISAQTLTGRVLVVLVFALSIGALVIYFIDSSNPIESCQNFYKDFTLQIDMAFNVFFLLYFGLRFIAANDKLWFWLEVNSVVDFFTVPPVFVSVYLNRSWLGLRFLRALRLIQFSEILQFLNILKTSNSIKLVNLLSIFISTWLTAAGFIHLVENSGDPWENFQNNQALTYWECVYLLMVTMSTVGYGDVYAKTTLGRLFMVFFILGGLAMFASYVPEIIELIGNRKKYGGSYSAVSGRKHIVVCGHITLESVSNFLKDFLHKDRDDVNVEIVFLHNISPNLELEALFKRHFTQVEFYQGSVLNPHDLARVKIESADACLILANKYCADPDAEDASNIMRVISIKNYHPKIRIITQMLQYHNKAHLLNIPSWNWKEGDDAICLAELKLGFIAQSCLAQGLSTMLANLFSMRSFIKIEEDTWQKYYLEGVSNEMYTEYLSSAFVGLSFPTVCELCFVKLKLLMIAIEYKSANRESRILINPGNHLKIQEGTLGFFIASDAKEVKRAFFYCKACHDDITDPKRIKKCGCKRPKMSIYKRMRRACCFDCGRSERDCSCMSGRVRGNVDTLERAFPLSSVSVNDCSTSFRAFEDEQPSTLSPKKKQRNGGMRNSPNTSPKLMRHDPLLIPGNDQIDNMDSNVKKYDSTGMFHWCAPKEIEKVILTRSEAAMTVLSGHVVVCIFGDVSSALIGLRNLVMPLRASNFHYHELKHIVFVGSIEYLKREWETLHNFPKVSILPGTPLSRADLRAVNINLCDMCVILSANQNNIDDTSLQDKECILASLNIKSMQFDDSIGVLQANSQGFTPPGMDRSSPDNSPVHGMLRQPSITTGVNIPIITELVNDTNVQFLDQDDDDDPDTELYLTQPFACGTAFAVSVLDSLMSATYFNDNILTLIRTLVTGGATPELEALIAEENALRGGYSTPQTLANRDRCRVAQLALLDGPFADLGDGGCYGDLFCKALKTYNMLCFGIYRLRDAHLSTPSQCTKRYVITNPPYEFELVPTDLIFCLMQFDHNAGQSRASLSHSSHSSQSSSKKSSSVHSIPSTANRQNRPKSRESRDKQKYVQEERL
Sequence of BK currents, cloned α-hSlo and β-bSlo in CHO cells (Q28067 2-191 partner): as the sequence (Q28067 2-191 partner limits assumed) above
Protocol: Electrophysiological Studies:
CHO cells permanently transfected with cloned α-hSlo and β-bSlo were maintained as described above and used for electrophysiological characterisation, The whole-cell configuration of the patch-clamp technique was used to determine the effect of modulators on BK currents in these cells. The cell line expressing functional BK currents (Zhou et al., Pflügers Arch. 436, p.725 (1998)) were plated onto glass cover slips with a density of 1-5×10^4 cells/cover slip, incubated (37° C., 5% CO2) and used for patch-clamp experiments within 24-48 h. Cells were bathed in mammalian ringer solutions containing (in mM): 160NaCl, 4.5KCl, 2CaCl2, 1MgCl2, 10 HEPES, adjusted to pH 7.4, 290-310 mOsm. The internal pipette solution contained (in mM): 160KCl, 2CaCl2, 1MgCl2, 10 HEPES, EGTA was added to reach a free [Ca^2+]internal=1×10^−6M, adjusted to pH 7.2, 290-310 mOsm. Borosilicate pipettes with a resistance of 2-3 MΩ were filled with the internal solution and mounted on an appropriate holder. Prior to measurements a recording chamber was mounted onto the cell-plated cover slips and the cells were perfused with a simple syringe driven perfusion system. Compounds were added in the final concentration ([…]) to the bath solution using the same system. An EPC-9 patch-clamp amplifier with Pulse and PulseFit software (HEKA) was used to record and analyze currents.
After addition of the compounds to the bath solution their modulating effect was determined by the increase or decrease of specific BK currents after reaching steady-state relative to the BK current before application of drugs (see Table II).

Compound: Brc1ccc(CNc2cccc(NCc3ccc(Br)cc3)c2)cc1 [Compound 12]
Em effect: ratio of the compound effect compared to the maximal effect of NS004 [1]: + (0-1 = +)
Effect: ratio of current increase after application of compound relative to the control current before compound application [2]: + (1-1.1 = +)

Compound: Clc1cccc(CNc2cccc(NCc3cccc(Cl)c3)c2)c1 [Compound 11]
Em effect: ratio of the compound effect compared to the maximal effect of NS004 [1]: + (0-1 = +)
Effect: ratio of current increase after application of compound relative to the control current before compound application [2]: + (1-1.1 = +)

Compound: FC(F)(F)c1cc(NCc2cccc(Cl)c2)cc(NCc2ccc3ccccc3c2)c1 [Compound 7, N-(3-Chlorobenzyl)-N′-naphthalen-2-ylmethyl-5-trifluoromethyl-benzene-1,3-diamine]
Em effect: ratio of the compound effect compared to the maximal effect of NS004 [1]: +++ (>1.5 = +++)
Effect: ratio of current increase after application of compound relative to the control current before compound application [2]: + (1-1.1 = +)

Compound: FC(F)(F)c1cc(NCc2ccc(Br)cc2)cc(NCc2ccc3ccccc3c2)c1 [Compound 6, N-(4-Bromobenzyl)-N′-naphthalen-2-ylmethyl-5-trifluoromethylbenzene-1,3-diamine]
Em effect: ratio of the compound effect compared to the maximal effect of NS004 [1]: +++ (>1.5 = +++)
Effect: ratio of current increase after application of compound relative to the control current before compound application [2]: ++ (>1, 1-1.2 = ++)

Compound: Clc1cc(NCc2ccc(Br)cc2)ccc1NCc1ccc(Br)cc1 [Compound 13, N^1,N^4-Bis-(4-bromobenzyl)-2-chlorobenzene-1,4-diamine]
Em effect: ratio of the compound effect compared to the maximal effect of NS004 [1]: +++ (>1.5 = +++)
Effect: ratio of current increase after application of compound relative to the control current before compound application [2]: +++ (>1.2 = +++)

Other lines, results leading:

Em effect: ratio of the compound effect compared to the maximal effect of NS004 [1]: ++ (>1-1.5 = ++)
Effect: ratio of current increase after application of compound relative to the control current before compound application [2]: +++ (>1.2 = +++)
Compound: Fc1cccc(CNc2cccc(NCc3cccc(F)c3)c2)c1 [Compound 35, N,N′-bis-(3-fluorobenzyl)-benzene-1,3-diaimine]

Em effect: ratio of the compound effect compared to the maximal effect of NS004 [1]: +++ (>1.5 = +++)
Effect: ratio of current increase after application of compound relative to the control current before compound application [2]: + (1-1.1 = +)
Compound: Clc1cccc(CNc2ccc(NCc3cccc(Cl)c3)c(Cl)c2)c1 [Compound 14]

Em effect: ratio of the compound effect compared to the maximal effect of NS004 [1]: +++ (>1.5 = +++)
Effect: ratio of current increase after application of compound relative to the control current before compound application [2]: + (1-1.1 = +)
Compound: Clc1cc(NCc2ccc3ccccc3c2)ccc1NCc1ccc2ccccc2c1 [Compound 15]
